For this test, the system named is 22RV1 cells. Put plainly: Cell proliferation inhibition assay in 22RV1 cells (CellTiter-Glo, 7 days). It is filed as cell-based, human. The conditions noted are these: Homo sapiens. The protocol: • 1. The human prostate cancer cell lines 22RV1 and LNCaP were purchased from ATCC. […] The cell concentration was adjusted to an appropriate concentration (determined based on the results of cell density optimization experiments), and the cells were seeded into a 96-well plate. A 100 µL cell suspension was added, resulting in 3000 cells per well. […] On the second day, for 22Rv1 cells, test compounds at different concentrations were added, and the cells were incubated at 37°C in a 5% CO2 incubator for 7 days; for LNCaP cells, test compounds at different concentrations were added first, and after 1 hour of treatment, 0.2 nM DHT was added. The cells were then incubated at 37°C in a 5% CO2 incubator for 7 days. • 4. After the incubation period, a volume of CellTiter-Glo detection reagent equal to the volume of the culture medium was added to each well. The plate was shaken and mixed thoroughly for 5 minutes, then incubated at room temperature for 10 minutes. Readings were taken using a PerkinElmer EnVision microplate reader. • 5.
The IC50 curve was fitted and the IC50 value was calculated using the software GraphPad Prism 8 with the calculation formula XY-analysis/Nonlinear regression (curve fit)/Dose response-Inhibition/log (inhibitor) vs. response-Variable slope (four parameters).

By IC50 is commonly meant the concentration needed to halve the response being measured. A high value points to weaker potency in that assay. Where the note is “168 h”, `CC(C)(c1ccc(-c2ccc(OCc3scnc3P(C)(C)=O)cc2)cc1)c1cc(Cl)c(OCCCl)c(C#N)c1` [Compound 157] returned an IC50 of 0.48 µM.
Where the note is “168 h”, `CC(C)(c1ccc(-c2ccc(OCC3CN(C4CC4)C3)cc2)cc1)c1cc(Cl)c(OCCCl)c(C#N)c1` [Compound 172] returned an IC50 of 1.23 µM.
`CC(C)(c1ccc(-c2ccc(/C=C\c3cnc(P(C)(C)=O)nc3)c(C#N)c2)cc1)c1cc(Cl)c(OCCCl)c(C#N)c1` [Compound 269] had an IC50 (168 h) of 0.39 µM.
On the same count and under the same terms, the figure for `CC(C)(c1ccc(-c2ccc(OCc3ccnc(N=S4(=O)CCN(CC(F)(F)F)CC4)n3)cn2)cc1)c1cc(Cl)c(OCCCl)c(C#N)c1` [Compound 139] is 0.65 µM.
Compound `CC(C)(c1ccc(-c2ccc(OCc3ccnc(N4CC(OCCS(C)(=O)=O)C4)n3)cc2)cc1)c1cc(Cl)c(OCCCl)c(C#N)c1` [Compound 160] returned an IC50 (22Rv1, 168 h) of 0.23 µM.
In turn, `CC(C)(c1ccc(-c2cnc(OCc3ccnc(N4CC(S(C)(=N)=O)C4)n3)cn2)cc1)c1cc(Cl)c(OCCCl)c(C#N)c1` (racemic) [Compound 323] had an IC50 (22Rv1, 168 h) of 0.57 µM.
Compound `CC(C)(c1ccc(-c2ccc(C#Cc3ccnc(N=S4(=O)CCCC4)n3)cc2)cc1)c1cnc2c(cnn2CCCl)c1` [Compound 240] registered an IC50 (168 h) of 0.65 µM.
In turn, `CC(C)(c1ccc(-c2ccc(/C=C/c3ccnc(N=S4(=O)CCOCC4)n3)cc2)cc1)c1cc(Cl)c(OCCCl)c(C#N)c1` [Compound 294] had an IC50 (168 h) of 0.82 µM.
On the same count and under the same terms, the figure for `CC(C)(c1ccc(-c2ccc(OCc3cc(P(C)(C)=O)ccn3)cc2)cc1)c1cc(Cl)c(OCCCl)c(C#N)c1` [Compound 224] is 1.33 µM.
Still for that read-out and setting: the figure for `CC(C)(c1ccc(-c2ccc(OCc3ccnc(N=S4(=O)CCN(C(=O)C5CC5)CC4)n3)cc2)cc1)c1cc(Cl)c(OCCCl)c(C#N)c1` [Compound 219] is 0.21 µM; for `CC(C)(c1ccc(-c2ccc(OCc3ccnc(N4CC5COCC5C4)n3)cc2)cc1)c1cc(Cl)c(OCCCl)c(C#N)c1` (stereo not drawn) [Compound 199] it is 1.01 µM; for `CC(C)(c1ccc(-c2ccc(OCc3ccnc(N=S4(=O)CCOCC4)n3)c(F)n2)cc1)c1cc(Cl)c(OCCCl)c(C#N)c1` [Compound 154] it is 0.26 µM.
The same measure, in the same setting: the figure for `CC(C)(c1ccc(-c2ccc(OCc3ccnc(P(C)(C)=O)n3)cn2)cc1)c1cc(Cl)c(OCCCl)c(C#N)c1` [Compound 15] is 1.35 µM; for `CC(C)(c1ccc(-c2cnc(OCc3ccnc(N=S4(=O)CCCC4)n3)nc2)cc1)c1cc(Cl)c(OCCCl)c(C#N)c1` [Compound 36] it is 1.35 µM.
Under “168 h”, `CC(C)(c1ccc(-c2ccc(OCc3ccnc(N4CCC(S(C)(=O)=O)CC4)n3)nc2)cc1)c1cc(Cl)c(OCCCl)c(C#N)c1` [Compound 210] came in with an IC50 of 0.23 µM.
On the same count and under the same terms, the same measure for `CC(=O)N1CCS(=O)(=Nc2nccc(COc3ccc(-c4ccc(C(C)(C)c5cc(Cl)c(OCCCl)c(C#N)c5)cc4)cc3)n2)CC1` [Compound 218]: 0.37 µM; for `CC(C)(c1ccc(-c2ccc(Oc3ccnc(P(C)(C)=O)n3)nc2)cc1)c1cc(Cl)c(OCCCl)c(C#N)c1` [Compound 326]: 0.98 µM; for `CC(C)(c1ccc(-c2ccc(OCc3ccnc(N=S4(=O)CCCC4)n3)nc2)cc1)c1cc(Cl)c(OCCCl)c(C#N)c1` [Compound 18]: 1.46 µM.
For the compound `CC(C)(c1ccc(-c2ccc(OCc3ccnc(P(C)(C)=O)n3)c(C#N)c2)cc1)c1cc(Cl)c(OCCCl)c(C#N)c1` [Compound 173], the IC50 (168 h) was 0.4 µM.
`CC(C)(c1ccc(-c2ccc(OCC3CC4(C3)CN(c3ccnc(P(C)(C)=O)n3)C4)cc2)cc1)c1cc(Cl)c(OCCCl)c(C#N)c1` [Compound 393] displayed an IC50 (168 h) of 0.88 µM.
For `Cn1ncc2c1CCS(=O)(=Nc1nccc(COc3ccc(-c4ccc(C(C)(C)c5cc(Cl)c(OCCCl)c(C#N)c5)cc4)cc3)n1)C2` (stereo not drawn) [Compound 281], where the note is “168 h”, the IC50 amounted to 0.5 µM.
With `CC(C)(c1ccc(-c2ccc(OCc3ccnc(N=S4(=O)CCNCC4)n3)cn2)cc1)c1cc(Cl)c(OCCCl)c(C#N)c1` [Compound 86], the IC50 (168 h) worked out at 0.63 µM.
`CC(C)(c1ccc(-c2ccc(OCc3ccnc(N4CCC(S(C)(=O)=O)C4)n3)cc2)cc1)c1cc(Cl)c(OCCCl)c(C#N)c1` (stereo not drawn) [Compound 266] returned an IC50 (168 h) of 0.77 µM.
The same measure, in the same setting: the same measure for `CC(C)(c1ccc(-c2ccc(OCc3ccnc(N4CC(O)C4)n3)cc2)cc1)c1cc(Cl)c(OCCCl)c(C#N)c1` [Compound 54]: 1.42 µM; for `CC(C)(c1ccc(-c2ccc(OCC3CCC(CN4CC5(C4)CS(=N)(=O)C5)CC3)cc2)cc1)c1cc(Cl)c(OCCCl)c(C#N)c1` (stereo not drawn) [Compound 318]: 0.73 µM; for `CC(C)(c1ccc(-c2ccc(OCc3ccnc(N=S4(=O)CCN(C5CC5)CC4)n3)cn2)cc1)c1cc(Cl)c(OCCCl)c(C#N)c1` [Compound 250]: 0.86 µM.
Compound `CC(C)(c1ccc(-c2ccc(OCc3ccnc(N4CC5(CNC5)C4)n3)cc2)cc1)c1cc(Cl)c(OCCCl)c(C#N)c1` [Compound 104] registered a half-maximal inhibitory concentration (IC50) (168 h) of 0.92 µM.
`CC(C)(c1ccc(-c2ccc(OCc3ccnc(N=S4(=O)CCNCC4)n3)nc2)cc1)c1cc(Cl)c(OCCCl)c(C#N)c1` [Compound 211] gave an IC50 (168 h) of 0.39 µM.
Where the note is “168 h”, `CC(C)(c1ccc(-c2ccc(OCCOc3nccc(N=S4(=O)CCOCC4)n3)cc2)cc1)c1cc(Cl)c(OCCCl)c(C#N)c1` [Compound 205] had an IC50 of 0.43 µM.
The same measure, in the same setting: the same measure for `CC(C)(c1ccc(-c2ccc(OC3CCN(c4ccnc(N5CC(S(C)(=O)=O)C5)n4)CC3)cc2)cc1)c1cc(Cl)c(OCCCl)c(C#N)c1` [Compound 143]: 0.9 µM.
Compound `CC(C)(c1ccc(-c2ccc(OCc3ccnc(OC4CC5(COC5)C4)n3)cc2)cc1)c1cc(Cl)c(OCCCl)c(C#N)c1` [Compound 201] displayed an IC50 (168 h) of 0.19 µM.
For `COC1CC2(C1)CN(c1nccc(COc3ccc(-c4ccc(C(C)(C)c5cc(Cl)c(OCCCl)c(C#N)c5)cc4)cc3)n1)C2` [Compound 166], the IC50 (168 h) is 1.21 µM.
The same measure, in the same setting: the figure for `CC(C)(c1ccc(-c2cnc(OCc3ccc(-c4cnc(P(C)(C)=O)nc4)cc3)nc2)cc1)c1cc(Cl)c(OCCCl)c(C#N)c1` [Compound 274] is 0.13 µM; for `CC(C)(c1ccc(-c2ccc(OCc3ccc(-c4cnc(P(C)(C)=O)nc4)cc3)cn2)cc1)c1cc(Cl)c(OCCCl)c(C#N)c1` [Compound 275] it is 0.46 µM; for `CC(C)(c1ccc(-c2ccc(OCC34CC(c5cnc(N6CC(S(C)(=O)=O)C6)nc5)(C3)C4)cc2)cc1)c1cc(Cl)c(OCCCl)c(C#N)c1` [Compound 321] it is 1.2 µM.
For the compound `CC(C)(c1ccc(-c2ccc(OCc3ccnc(N4CC(S(=N)(=O)C5CC5)C4)n3)cn2)cc1)c1cc(Cl)c(OCCCl)c(C#N)c1` (stereo not drawn) [Compound 336], it took 0.68 µM to reach half-maximal inhibition (168 h) (IC50).
On the same count and under the same terms, the figure for `CC(C)(c1ccc(-c2ccc(Oc3ccc(-c4ccnc(P(C)(C)=O)n4)cc3)cc2)cc1)c1cc(Cl)c(OCCCl)c(C#N)c1` [Compound 267] is 0.17 µM.
Same read-out and setting: the figure for `CC(C)(c1ccc(-c2ccc(OCc3ccnc(N4CCN(S(C)(=O)=O)CC4)n3)cc2)cc1)c1cc(Cl)c(OCCCl)c(C#N)c1` [Compound 200] is 0.58 µM.
Still for that read-out and setting: the figure for `CC1(NS(C)(=O)=O)CN(c2nccc(COc3ccc(-c4ccc(C(C)(C)c5cc(Cl)c(OCCCl)c(C#N)c5)cc4)cc3)n2)C1` [Compound 90] is 1.32 µM; for `C[C@@H](Cl)COc1c(Cl)cc(C(C)(C)c2ccc(-c3ccc(OCc4ccnc(P(C)(C)=O)n4)cc3)cc2)cc1C#N` [Compound 313] it is 0.89 µM.
`CC(C)(c1ccc(-c2ccc(OCC3CN(C(=O)C4CC5(C4)CS(=O)(=O)C5)C3)cc2)cc1)c1cc(Cl)c(OCCCl)c(C#N)c1` [Compound 310] had an IC50 (168 h) of 0.94 µM.
Still for that read-out and setting: the figure for `CC(C)(c1ccc(-c2ccc(OCc3ccnc(N=S4(=O)CCN(C[C@@H](O)C(F)(F)F)CC4)n3)cc2)cc1)c1cc(Cl)c(OCCCl)c(C#N)c1` [Compound 286] is 0.7 µM.
On the same count and under the same terms, the same measure for `CC(C)(c1ccc(-c2ccc(OCc3ccnc(N=S4(=O)CCN(CC(F)F)CC4)n3)cc2)cc1)c1cc(Cl)c(OCCCl)c(C#N)c1` [Compound 239]: 1.01 µM.
The same measure, in the same setting: the same measure for `CC(C)(c1ccc(-c2ccc(OCc3ccnc(N4CC5(C4)CS(=O)(=O)C5)n3)nc2)cc1)c1cc(Cl)c(OCCCl)c(C#N)c1` [Compound 208]: 0.99 µM.
For the setting “168 h”, `CC(C)(c1ccc(-c2ccc(OCC3CC4(C3)CS(=O)(=O)C4)cc2)cc1)c1cc(Cl)c(OCCCl)c(C#N)c1` [Compound 106] returned an IC50 of 0.19 µM.
Same read-out and setting: the same measure for `CC(C)(c1ccc(-c2ccc(OCc3ccnc(N=S4(=O)CCN(S(C)(=O)=O)CC4)n3)cc2)cc1)c1cc(Cl)c(OCCCl)c(C#N)c1` [Compound 220]: 0.17 µM.
With `CC(C)(c1ccc(-c2cnc(OCc3ccnc(N4CC5(COC5)C4)n3)nc2)cc1)c1cc(Cl)c(OCCCl)c(C#N)c1` [Compound 35], the IC50 (168 h) was 0.84 µM.
Still for that read-out and setting: the figure for `CNC1CN(c2nccc(COc3ccc(-c4ccc(C(C)(C)c5cc(Cl)c(OCCCl)c(C#N)c5)cc4)cc3)n2)C1` [Compound 314] is 1.14 µM; for `CC(C)(c1ccc(-c2ccc(OCc3ccnc(N4CCCS4(=O)=O)n3)cc2)cc1)c1cc(Cl)c(OCCCl)c(C#N)c1` [Compound 265] it is 0.54 µM.
Turning to `CC(C)(c1ccc(-c2ccc(OCc3ccnc(N4CC5(C4)CN(S(C)(=O)=O)C5)n3)cc2)cc1)c1cc(Cl)c(OCCCl)c(C#N)c1` [Compound 105], the concentration for half-maximal inhibition (IC50) (168 h) was 0.3 µM.
Regarding `CC(C)(c1ccc(-c2ccc(OCc3ccnc(N=S4(=O)CCN(CC(O)C(F)(F)F)CC4)n3)cc2)cc1)c1cc(Cl)c(OCCCl)c(C#N)c1` (stereo not drawn) [Compound 252], half-maximal inhibition (168 h) (IC50) was put at 0.72 µM.

The values are drawn from patent EP4778922A1, “BICYCLIC COMPOUND, AND PREPARATION METHOD THEREFOR AND PHARMACEUTICAL USE THEREOF” (Shanghai Jeyou Pharmaceutical Co., Ltd., priority 2023, dated 2025).
